Laboratory results taken from patent US20240287089A1, “Preparation and Uses of 7-Azaindenoisoquinolines” (Purdue Research Foundation, priority 0001, published 2024).
pIC50, pKd: −log10 of the molar value.

Experiments:
[1] = test system: AMO-1; experiment: MTS GI50, Myc-dependent panel; type: cell-based; settings: Homo sapiens, AMO1; AMO-1, 72 h; read-out: GI50
Method: (§1) Cytotoxicity Results in Myc-dependent Cancer Cell Lines.
(§2) MTS Cell Viability IC50 Assay. Drug solutions for MTS IC50 assays of suspension cell lines were made from DMSO stocks by serial-dilutions in 1×PBS (10010-031, Gibco). To set up treatments, drug solutions were plated in triplicates to 96-well tissue culture plates, to which cell-containing media was added to a total volume of 100 μL/well. 100%-viability controls were untreated cells. 2000 cells/well were plated for all suspension cell lines except 3000 cells/well for KMS-27 and 10000 cells/well for CHLA-32. Blanks were cell-free media. Drug treatments were maintained for 72 hr at 37° C. with 5% CO2. To quantify cells, CellTiter 96 AQueous MTS Reagent Powder (G1111, Promega) was dissolved and mixed with phenazine methosulfate (PMS, Sigma-Aldrich P9625) according to manufacturer's instructions. MTS/PMS mix ([…]) was added to treatment wells, 100%-viability control wells, and blank wells. Colors were developed at 37° C. with 5% CO2 for 4 h and absorbance at 490 nm was measured by BioTek Synergy 4 system. To obtain %-viability, A490 values were corrected by blank subtraction, normalized to 100%-viability control, and averaged. Average %-viabilities were plotted against drug dosages to obtain dose-response curves. […] For adherent cell lines, the MTS IC50 assays were conducted the same way as for suspension cell lines except for cell plating and drug treatment. For cell plating, 50 μL of 2000 cells were plated in triplicates to a 96-well tissue culture plate. Cells were allowed sufficient time to become adherent. Serial-diluted drug solutions were made the same way as in the MTS IC50 assays. To set up treatments, drug solutions were mixed with media to two-fold of the final concentrations, and 50 μL of such drug-media mix was then added to 50 μL of plated cells.

[2] = test system: ARD; experiment: MTS GI50, Myc-dependent panel; type: cell-based; settings: ARD, 72 h; read-out: GI50
Method: as §1, §2

[3] = test system: CCRF-CRM; experiment: MTS GI50, Myc-dependent panel; type: cell-based; settings: CCRF-CRM, 72 h; read-out: GI50
Method: as §1, §2

[4] = test system: CHLA-32; experiment: MTS GI50, Myc-dependent panel; type: cell-based; settings: CHLA-32, 72 h; read-out: GI50
Method: as §1, §2

[5] = test system: CHLA-99; experiment: MTS GI50, Myc-dependent panel; type: cell-based; settings: CHLA-99, 72 h; read-out: GI50
Method: as §1, §2

[6] = test system: HL-60; experiment: MTS GI50, Myc-dependent panel; type: cell-based; settings: Homo sapiens, HL-60, 72 h; read-out: GI50
Method: as §1, §2

[7] = test system: K-562; experiment: MTS GI50, Myc-dependent panel; type: cell-based; settings: Homo sapiens, K562; K-562, 72 h; read-out: GI50
Method: as §1, §2

[8] = test system: KMS-27; experiment: MTS GI50, Myc-dependent panel; type: cell-based; settings: KMS-27, 72 h; read-out: GI50
Method: as §1, §2

[9] = test system: Kasumi-1; experiment: MTS GI50, Myc-dependent panel; type: cell-based; settings: Homo sapiens; Kasumi-1, 72 h; read-out: GI50
Method: as §1, §2

[10] = test system: L-363; experiment: MTS GI50, Myc-dependent panel; type: cell-based; settings: Homo sapiens, L-363, 72 h; read-out: GI50
Method: as §1, §2

[11] = test system: MCF-7; experiment: MTS GI50, Myc-dependent panel; type: cell-based; settings: Homo sapiens, MCF7; MCF-7, 72 h; read-out: GI50
Method: as §1, §2

[12] = test system: MDA-MB-231; experiment: MTS GI50, Myc-dependent panel; type: cell-based; settings: Homo sapiens, MDA-MB-231, 72 h; read-out: GI50
Method: as §1, §2

[13] = test system: MOLT-4; experiment: MTS GI50, Myc-dependent panel; type: cell-based; settings: Homo sapiens, MOLT-4, 72 h; read-out: GI50
Method: as §1, §2

[14] = test system: RD-ES; experiment: MTS GI50, Myc-dependent panel; type: cell-based; settings: 72 h, read-out: GI50
Method: as §1, §2

[15] = test system: RPMI-8226; experiment: MTS GI50, Myc-dependent panel; type: cell-based; settings: Homo sapiens, RPMI-8226, 72 h; read-out: GI50
Method: as §1, §2

[16] = test system: RS4;11; experiment: MTS GI50, Myc-dependent panel; type: cell-based; settings: Homo sapiens; RS4;11, 72 h; read-out: GI50
Method: as §1, §2

[17] = test system: SK-N-MC; experiment: MTS GI50, Myc-dependent panel; type: cell-based; settings: Homo sapiens, 72 h, read-out: GI50
Method: as §1, §2

[18] = test system: TC-106; experiment: MTS GI50, Myc-dependent panel; type: cell-based; settings: TC-106, 72 h; read-out: GI50
Method: as §1, §2

[19] = test system: TC-32; experiment: MTS GI50, Myc-dependent panel; type: cell-based; settings: Homo sapiens, TC-32, 72 h; read-out: GI50
Method: as §1, §2

[20] = test system: TC-71; experiment: MTS GI50, Myc-dependent panel; type: cell-based; settings: TC-71, 72 h; read-out: GI50
Method: as §1, §2

[21] = test system: THP-1; experiment: MTS GI50, Myc-dependent panel; type: cell-based; settings: Homo sapiens, THP-1, 72 h; read-out: GI50
Method: as §1, §2

[22] = test system: DU-145 (Prostate); experiment: NCI-60 cytotoxicity assay; type: cell-based, human; settings: Homo sapiens; DU-145 prostate; 48 h, sulforhodamine B; read-out: Comparative Cytotoxicity GI50, Prostate DU-145
Method: (§3) The antiproliferative activities of the indenoisquinoline compounds are determined in the NCI-60 cancer cell lines of the National Cancer Institute Developmental Therapeutics Program (NCI-DTP). […] Cancer cells are incubated with the test compounds at five concentrations ranging from 100 μM to 10 nM for 48 h. After the treated cancer cells are stained with sulforhodamine B dye, the percentage growth is plotted as a function of the common logarithm of the tested compound concentration. […] The approximate average of GI50 values across the entire panel of NCI-60 cancer cell lines for each compound is recorded as the MGM value.
(§4) NCI-60 Cytotoxicity Assay. Compounds were submitted to the National Cancer Institute Developmental Therapeutic Program to determine their growth-inhibitory potentials in NCI-60 cell lines. All compounds satisfied the pre-screening proceeded into the 5-dose cell viability assay, in which cells were treated for 48 h at 5 dosages ranging from 100 μM to 10 nM.

[23] = test system: HCT-116 (Colon); experiment: NCI-60 cytotoxicity assay; type: cell-based, human; settings: Homo sapiens; HCT-116 colon; 48 h, sulforhodamine B; read-out: Comparative Cytotoxicity GI50, Colon HCT-116
Method: as §3, §4

[24] = test system: HOP-62 (Lung); experiment: NCI-60 cytotoxicity assay; type: cell-based, human; settings: Homo sapiens; HOP-62 lung; 48 h, sulforhodamine B; read-out: Comparative Cytotoxicity GI50, Lung HOP-62
Method: as §3, §4

[25] = test system: MCF7 (Breast); experiment: NCI-60 cytotoxicity assay; type: cell-based, human; settings: Homo sapiens; MCF7 breast; 48 h, sulforhodamine B; read-out: Comparative Cytotoxicity GI50, Breast MCE7
Method: as §3, §4

[26] = test system: OVCAR-3 (Ovarian); experiment: NCI-60 cytotoxicity assay; type: cell-based, human; settings: Homo sapiens; OVCAR-3 ovarian; 48 h, sulforhodamine B; read-out: Comparative Cytotoxicity GI50, Ovarian OVCAR-3
Method: as §3, §4

[27] = test system: SN12C (Renal); experiment: NCI-60 cytotoxicity assay; type: cell-based, human; settings: Homo sapiens; SN12C renal; 48 h, sulforhodamine B; read-out: Comparative Cytotoxicity GI50, Renal SN12C
Method: as §3, §4

[28] = test system: UACC-62 (Melanoma); experiment: NCI-60 cytotoxicity assay; type: cell-based, human; settings: Homo sapiens; UACC-62 melanoma; 48 h, sulforhodamine B; read-out: Comparative Cytotoxicity GI50, Melanoma UACC-62
Method: as §3, §4

[29] = test system: SF-539 (CNS); experiment: NCI-60 cytotoxicity assay; type: cell-based; settings: Homo sapiens; SF-539 CNS; 48 h, sulforhodamine B; read-out: Comparative Cytotoxicity GI50, CNS SF-539
Method: as §3, §4

[30] = test system: NCI-60 cancer cell lines; experiment: NCI-60 cytotoxicity assay, MGM; type: cell-based; settings: Homo sapiens; entire panel of NCI-60 cancer cell lines; read-out: MGM (approximate average of GI50 values across the NCI-60 panel)
Method: as §3, §4

[31] = biological target: 3′-TAMRA-labeled MycG4 DNA; experiment: Fluorescence binding assay; settings: 20° C., 100 mM K+ buffer, pH 7.0; read-out: Apparent Binding Affinity Kd, app
Method: Binding Affinity to the Myc G-Quadruplex. Binding affinity of eight 7-aza-8,9-methylenedioxyindenoisoquinolines to MycG4 was determined using a fluorescence binding assay with a 3′-TAMRA-labeled MycG4 DNA. Monitoring TAMRA emission upon drug titration afforded binding isotherms, from which apparent binding affinities, Kd,app, were derived.
Fluorescence-Based Binding Assays. Fluorescence-based binding assays were performed on a Jasco FP-8300 spectrofluorometer equipped with a temperature controller at 20° C. in a quartz cuvette with a 10 mm path length. 3′-TAMRA-labeled MycG4 DNA (Sigma-Aldrich) was diluted to 20 nM using a 75 mM KCl/25 mM potassium phosphate buffer, pH 7.0. […] Fluorescence intensity at 580 nm, the maximum for the free DNA, was plotted against drug:DNA ratio. The apparent binding dissociation constant, Kd,app, was derived for the binding of each compound. Using OriginPro software (OriginLab Corp., United States) the change in fluorescence intensity was fitted to a one-site binding equation,
where B0 is the initial fluorescence intensity, B is maximum change in fluorescence intensity, R is DNA concentration, and L is drug:DNA ratio.

[32] = test system: RAJI lymphoma cells; experiment: MTS cell viability IC50 assay; type: cell-based; settings: Homo sapiens, Raji, 72 h
Method: Cytotoxicity Results in Raji Non-Hodgkin's Lymphoma Cells. MTS experiments were then conducted to test the anti-proliferative effects of 7-aza-8,9-methylenedioxyindenoisoquinolines in Raji cells. Cells were incubated at 2-2000 nM of each drug for 72 h, and cell viabilities were quantified using the MTS assay. […] This potency trend generally correlated with the western blot results, in which G106 and G108 […] show weaker Myc downregulation.
as §2

SMILES	GI50 [1]	GI50 [2]	GI50 [3]	GI50 [4]	GI50 [5]	GI50 [6]	GI50 [7]	GI50 [8]	GI50 [9]	GI50 [10]	GI50 [11]	GI50 [12]	GI50 [13]	GI50 [14]	GI50 [15]	GI50 [16]	GI50 [17]	GI50 [18]	GI50 [19]	GI50 [20]	also measured
CC[C@@]1(O)C(=O)OCc2c1cc1n(c2=O)Cc2cc3ccccc3nc2-1 [CPT, Camptothecin]	20 nM	11 nM	4 nM	6 nM	4 nM	27 nM	22 nM	13 nM	85 nM	10 nM	200 nM	37 nM	< 2 nM	5 nM	14 nM	6 nM	9 nM	11 nM	7 nM	8 nM	GI50 [21]: 55 nM
COc1cc2c3c(n(CCCNC4CCC4)c(=O)c2cc1OC)-c1cc2c(cc1C3=O)OCO2 [A2]	–	–	–	–	–	–	–	–	–	–	–	–	–	–	–	–	–	–	–	–	GI50 [22]: 790 nM; GI50 [23]: 900 nM; GI50 [24]: 220 nM; GI50 [25]: 57 nM; GI50 [26]: 1380 nM; GI50 [27]: 1440 nM; GI50 [28]: 1400 nM; GI50 [29]: 1050 nM; GI50 [30]: 870 nM
COc1cc2c3c(n(CCCN4CCCCC4)c(=O)c2cc1OC)-c1cc2c(cc1C3=O)OCO2 [A6]	–	–	–	–	–	–	–	–	–	–	–	–	–	–	–	–	–	–	–	–	GI50 [22]: 1370 nM; GI50 [23]: 420 nM; GI50 [24]: 1050 nM; GI50 [25]: 140 nM; GI50 [26]: 1630 nM; GI50 [27]: 1610 nM; GI50 [28]: 1380 nM; GI50 [29]: 1460 nM; GI50 [30]: 1050 nM
COc1cc2c3c(n(CCCn4ccnc4)c(=O)c2cc1OC)-c1cc2c(cc1C3=O)OCO2 [LMP776, indimitecan]	191 nM	33 nM	70 nM	93 nM	276 nM	894 nM	341 nM	127 nM	533 nM	53 nM	> 2000 nM	329 nM	42 nM	227 nM	139 nM	59 nM	225 nM	250 nM	179 nM	232 nM	pKd [31]: 7.16; pIC50 [32]: 7.04; GI50 [21]: 273 nM
